# System: Eimeria tenella
# Assay: Anticoccidial test in chickens orally inoculated with sporulated oocysts of Eimeria tenella (anticoccidial index, ACI)
# Format: in vivo
# Settings: for Lesion value: cecum, 7th day after infection; for Oocyst value: converted according to Table 2; for Clinical symptoms (bloody stool): after infection
# From the text: Male chicks from layer aged 1 day were selected and raised to 12-day-old. Each was weighed, while excluding thin or overweight individuals, healthy chickens with individual weight differences of less than 10 g were selected, and randomly divided into thirteen groups with each group including thirty chickens. Among them, ten groups were used as drug groups, one group as a model group, one group as a diclazuril group, and one group as a blank control group. Each chicken aged 12 days of the drug groups was subject to drug administration through mixing with feed, while that of the diclazuril group was administrated though drinking water. Each chicken aged 14 days in the drug groups, the diclazuril group and the model group was orally inoculated with 1.0×10^4 sporulated oocysts of Eimeria tenella. Each experimental chicken in all groups was free to feed and drink water until the test was over on the seventh day.
# The anticoccidial index (ACI) criteria were calculated by
# the calculation formula of Merck Corporation (USA), that is:
# ACI=(relative weight gain rate+survival rate)×100−(lesion value+oocyst value).
# Among them, the relative weight gain rate was calculated by
# weighing each chicken at the beginning and end of the test, respectively, to calculate the average and relative weight gain rates. Relative weight gain rate=(test group weight gain rate/blank control group weight gain rate)×100%.
# The survival rate was calculated by
# recording the number of dead chickens in each group, performing an autopsy to determine the cause of death, and calculating the survival rate. Survival rate=(number of chickens alive at the end of the test/number of chickens in the test group)×100%
# The lesion value was calculated by
# slaughtering each chicken on the 7th day after infection to take the cecum (as shown in FIG. 5-6), and scoring the intestinal lesion of each chicken according to the lesion scoring method designed by […] and Reid (1970), and converting the lesion score into the lesion value.
# Lesion scoring: (in case of lesion inconsistence between both sides of cecum, the more severe shall prevail):
# 0 point: no macroscopic lesions;
# 1 point: there are a few of petechiae scattered in the cecal wall, the cecal wall is not thickened, and the contents therein are normal;
# 2 points: the lesion number is more, the cecum contents are obviously bloody, the cecal wall is slightly thickened, and the contents therein are normal;
# 3 points: there is a lot of blood or there is a cecum core (blood clot or off-white cheese-like banana-shaped blocks) in the cecum, the cecal wall is obviously thickened, and the feces contents in the cecum are poor;
# 4 points: the cecum swells due to being full of a large amount of blood or cecum core with or without fecal residue, and it is also scored 4 points when the chicken dies for coccidiosis.
# Lesion value (0-40)=average lesion score (0-4) for each test group×10
# The oocyst value and the relative oocyst production (ROP) were calculated by collecting the chicken feces of each group, counting the number of oocysts in the feces according to McMaster counting, calculating the number of oocysts per gram of feces of each group, and obtaining the oocyst value by conversion according to Table 2.
# Relative oocyst production (ROP)=(average oocyst production in the test group/average oocyst production in the model group)×100%. ROP≥15%, resistant to drugs; ROP<15%, no drug resistance.
# The criteria for determining the drug efficacy were: ACI>180, high efficacy against coccidiosis; 160<ACI<180, medium efficacy against coccidiosis; 120<ACI<160, low efficacy against coccidiosis; ACI<120, inefficacy against coccidiosis.
# Male chicks from layer aged 1 day were selected and raised to 12-day-old. Each was weighed, while excluding thin or overweight individuals, healthy chickens with individual weight differences of less than 10 g were selected, and randomly divided into 6 groups with each group including thirty chickens. […]
# [1] = Example 2, Drug groups 1, 2 5 kg/ton in feed, Drug group 3 1:400 drinking water, diclazuril 0.2 ml/L
# [2] = Example 3, Drug groups 5 kg/ton in feed, diclazuril 0.2 ml/L drinking water
compound,measurement,setting,value
N#CC(c1ccc(Cl)cc1)c1c(Cl)cc(-n2ncc(=O)[nH]c2=O)cc1Cl (stereo not drawn) [Diclazuril],Effect against avian coccidiosis (conclusion),Example 1,high therapeutic effect
same,"Clinical symptoms (bloody stool, food intake)","Example 1, 4th to 6th day after infection",no bloody stool
same,Bloody stool (feces observation),"Example 1, 5th day after Eimeria challenge, partially mixed with blood / a large amount of feces mixed with blood / bloodless",bloodless
same,ACI value,"Example 1, ACI=(relative weight gain rate+survival rate)×100−(lesion value+oocyst value), herbs 5 kg/ton in feed, diclazuril 0.2 ml/L drinking water",201.2
same,Relative oocyst production (ROP),"Example 1, average oocyst production relative to model group, herbs 5 kg/ton in feed, diclazuril 0.2 ml/L drinking water",0.0%
same,Lesion value,"Example 1, lesion value (0-40) = average lesion score ×10, herbs 5 kg/ton in feed, diclazuril 0.2 ml/L drinking water",0.0
same,Relative weight gain rate,"Example 1, chickens, 1.0×10^4 oocysts at 14 days of age, herbs 5 kg/ton mixed with feed, diclazuril 0.2 ml/L drinking water, 9 days, relative to blank control",101.2%
same,Survival rate,"Example 1, chickens, 1.0×10^4 oocysts, herbs 5 kg/ton in feed, diclazuril 0.2 ml/L drinking water, 9 days",100%
same,Criteria (drug efficacy by ACI),"Example 1, herbs 5 kg/ton in feed, diclazuril 0.2 ml/L drinking water","High (ACI>180, high efficacy against coccidiosis)"
same,Oocyst value,"Example 1, oocysts per gram of feces relative to model group, herbs 5 kg/ton in feed, diclazuril 0.2 ml/L drinking water",0
same,Effect against avian coccidiosis (conclusion),Example 2,high therapeutic effect
same,ACI value,[1],198.9
same,Criteria (drug efficacy by ACI),[1],"High (ACI>180, high efficacy against coccidiosis)"
same,Survival rate,"Example 2, Drug groups 1, 2 5 kg/ton in feed, Drug group 3 1:400 drinking water, diclazuril 0.2 ml/L drinking water",100%
same,Clinical symptoms (bloody stool),Example 2,no bloody stool
same,Lesion value,[1],0
same,Relative weight gain rate,"Example 2, chickens, 1.0×10^4 oocysts, Drug groups 1, 2 5 kg/ton in feed, Drug group 3 1:400 drinking water, diclazuril 0.2 ml/L drinking water, 9 days",98.9%
same,Oocyst value,[1],0
same,Relative oocyst production (ROP),"Example 2, relative to model group, Drug groups 1, 2 5 kg/ton in feed, Drug group 3 1:400 drinking water, diclazuril 0.2 ml/L",0%
same,ACI value,[2],198.4
same,Criteria (drug efficacy by ACI),[2],"High (ACI>180, high efficacy against coccidiosis)"
same,Survival rate,[2],100%
same,Clinical symptoms (bloody stool),Example 3,no bloody stool
same,Lesion value,[2],0
same,Relative weight gain rate,"Example 3, chickens, 1.0×10^4 oocysts, Drug groups 1-3 5 kg/ton in feed, diclazuril 0.2 ml/L drinking water, 9 days",98.4%
same,Oocyst value,[2],0
same,Relative oocyst production (ROP),"Example 3, relative to model group, Drug groups 5 kg/ton in feed, diclazuril 0.2 ml/L drinking water",0%

# From patent US20230226012A1, “USE OF USNIC ACID, A SALT OF USNIC ACID, OR A FORMULATION THEREOF IN THE PREPARATION OF ANTI-AVIAN COCCIDIOSIS DRUGS OR FEED ADDITIVES” (priority 2022, published 2023)
